# Reference: the NIST ThermoML archive (doi:10.1016/j.fluid.2005.05.012)
# Where “and” joins values, the source holds several entries; their conditions need not be identical. Identical values can stand only once. Numbers after ± are expanded uncertainties.
# Columns and labels:
# [1] = 101.33 kPa, Liquid
# [2] = xn = mol fraction of the nth substance listed; details: 101.33 kPa, Liquid, x1 = 1
mass density ([1]; 293.15 K),viscosity ([1]; 293.15 K),mass density ([1]; 298.15 K),viscosity ([1]; 298.15 K),mass density ([1]; 303.15 K),viscosity ([1]; 303.15 K),mass density ([2]; 293.15 K),viscosity ([2]; 293.15 K),mass density ([2]; 298.15 K),viscosity ([2]; 298.15 K),mass density ([2]; 303.15 K),viscosity ([2]; 303.15 K),Structure (SMILES)
809.97 ± 0.55 kg/m3,2.938 ± 0.033 mPa·s,806.15 ± 0.56 kg/m3,2.572 ± 0.029 mPa·s,802.14 ± 0.57 kg/m3,2.271 ± 0.026 mPa·s,,,,,,,CCCCO [butan-1-ol]
803.79 ± 0.56 kg/m3,2.194 ± 0.025 mPa·s,799.74 ± 0.57 kg/m3,1.945 ± 0.023 mPa·s,795.68 ± 0.58 kg/m3,1.73 ± 0.02 mPa·s,,,,,,,CCCO [propan-1-ol]
,,,,,,803.79 ± 0.56 kg/m3,2.194 ± 0.025 mPa·s,799.74 ± 0.57 kg/m3,1.945 ± 0.023 mPa·s,795.68 ± 0.58 kg/m3,1.73 ± 0.02 mPa·s,CCCO [propan-1-ol] + CN1CCNCC1
,,,,,,785.84 ± 0.6 kg/m3,2.405 ± 0.028 mPa·s,781.3 ± 0.61 kg/m3,2.062 ± 0.024 mPa·s,777.41 ± 0.61 kg/m3,1.782 ± 0.021 mPa·s,CC(C)O [propan-2-ol] + CN1CCNCC1

# More lines, now with the values behind:
Structure (SMILES),mass density ([1]; 293.15 K),viscosity ([1]; 293.15 K),mass density ([1]; 298.15 K),viscosity ([1]; 298.15 K),mass density ([1]; 303.15 K),viscosity ([1]; 303.15 K),mass density ([2]; 293.15 K),viscosity ([2]; 293.15 K),mass density ([2]; 298.15 K),viscosity ([2]; 298.15 K),mass density ([2]; 303.15 K),viscosity ([2]; 303.15 K)
CC(C)CO [2-methyl-1-propanol],801.58 ± 0.57 kg/m3,3.994 ± 0.044 mPa·s,798.09 ± 0.57 kg/m3,3.334 ± 0.037 mPa·s,794.09 ± 0.58 kg/m3,2.794 ± 0.032 mPa·s,,,,,,
CN1CCNCC1 [N-methylpiperazine],903.8 ± 0.36 kg/m3 and 903.79 ± 0.36 kg/m3 and 903.78 ± 0.36 kg/m3,2.1 ± 0.024 mPa·s,899.8 ± 0.37 kg/m3,1.841 ± 0.021 mPa·s,894.52 ± 0.38 kg/m3 and 894.54 ± 0.38 kg/m3 and 894.55 ± 0.38 kg/m3,1.624 ± 0.019 mPa·s,,,,,,
CCO [ethanol],789.32 ± 0.59 kg/m3,1.17 ± 0.014 mPa·s,785.06 ± 0.6 kg/m3,1.078 ± 0.013 mPa·s,780.68 ± 0.61 kg/m3,0.982 ± 0.012 mPa·s,,,,,,
CO [methanol],791.09 ± 0.59 kg/m3,0.593 ± 0.008 mPa·s,786.48 ± 0.6 kg/m3,0.551 ± 0.008 mPa·s,781.22 ± 0.61 kg/m3,0.509 ± 0.008 mPa·s,,,,,,
CC(C)O [propan-2-ol],785.84 ± 0.6 kg/m3,2.405 ± 0.028 mPa·s,781.3 ± 0.61 kg/m3,2.062 ± 0.024 mPa·s,777.41 ± 0.61 kg/m3,1.782 ± 0.021 mPa·s,,,,,,
